In the experiment the target is Phosphoglycerate mutase 1 (PGAM1) (Homo sapiens, UniProt P18669). The experiment is described as follows: SPR. The experiment is classed as binding.

Drawing on article PMC12337087 (Phytotherapy Research, 2025), this text covers Kd for one molecule.

The structures appear in SMILES notation.

As a reminder, the Kd is the free concentration of one partner at which half of the binding sites on the other are occupied at equilibrium, for simple one-to-one binding. Lower therefore signals a tighter complex.

Sequence of Phosphoglycerate mutase 1 (PGAM1) (P18669 2-254): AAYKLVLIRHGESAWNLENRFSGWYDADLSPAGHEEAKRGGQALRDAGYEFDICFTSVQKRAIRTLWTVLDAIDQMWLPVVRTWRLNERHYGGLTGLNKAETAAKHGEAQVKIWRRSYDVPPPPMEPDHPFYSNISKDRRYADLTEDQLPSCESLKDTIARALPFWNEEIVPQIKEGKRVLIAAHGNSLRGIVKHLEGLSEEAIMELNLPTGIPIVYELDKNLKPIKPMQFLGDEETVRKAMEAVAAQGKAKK

Take `Cc1cccc2c3c(ccc12)C1=C(C(=O)C3=O)[C@@H](C)CO1` [DHT, Dihydrotanshinone I]: the Kd turned out to be 697 nM.
